# Laboratory results: article PMC5768759 (2018)
# Key:
# [1] = test system: F-duplex-T (DNA, hairpin, Spacer18 (hexaethylene glycol) between 10 and 11) TATAGCTATATATAGCTATA; assay: FRET melting; details: 5 mM K+, 50 mM Li+; 5 mM lithium cacodylate, pH 7.4; compound 0.2 μM, DNA 0.2 μM; no increment above error
# [2] = test system: ht21 (DNA, G4) GGGTTAGGGTTAGGGTTAGGG; assay: fluorescent intercalator displacement; details: 100 mM K+; 10 mM lithium cacodylate, pH 7.4; thiazole orange 0.5 μM displaced; DNA 0.25 μM; nearly 6-fold weaker than c-myc
# [3] = test system: ds26 (DNA, duplex) CAATCGGATCGAATTCGATCCGATTG; assay: fluorescent intercalator displacement; details: 100 mM K+; 10 mM lithium cacodylate, pH 7.4; thiazole orange 0.75 μM displaced; DNA 0.25 μM; nearly 10-fold weaker than c-myc
# [4] = test system: c-myc (DNA, G4) TGAGGGTGGGTAGGGTGGGTAA; assay: fluorescent intercalator displacement; details: 100 mM K+; 10 mM lithium cacodylate, pH 7.4; thiazole orange 0.5 μM displaced; DNA 0.25 μM
binding [1],DC50 [2] [nM],DC50 [3] [nM],DC50 [4] [nM],Structure (SMILES)
no,–,–,–,NCCCCCCCCCCN.[Cl-].[Cl-].[Pt+2].[Pt+2].c1ccc(-c2ccnc3c2ccc2c(-c4ccccc4)ccnc23)cc1.c1ccc(-c2ccnc3c2ccc2c(-c4ccccc4)ccnc23)cc1
no,1170,1840,200,NCCCCCCCCCN.[Cl-].[Cl-].[Pt+2].[Pt+2].c1ccc(-c2ccnc3c2ccc2c(-c4ccccc4)ccnc23)cc1.c1ccc(-c2ccnc3c2ccc2c(-c4ccccc4)ccnc23)cc1
no,–,–,–,NCCCCCCCCN.[Cl-].[Cl-].[Pt+2].[Pt+2].c1ccc(-c2ccnc3c2ccc2c(-c4ccccc4)ccnc23)cc1.c1ccc(-c2ccnc3c2ccc2c(-c4ccccc4)ccnc23)cc1
no,–,–,–,NCCCCCCCN.[Cl-].[Cl-].[Pt+2].[Pt+2].c1ccc(-c2ccnc3c2ccc2c(-c4ccccc4)ccnc23)cc1.c1ccc(-c2ccnc3c2ccc2c(-c4ccccc4)ccnc23)cc1
